{"source": "patent US4866035A", "about": "“Dipeptidyl saccharides as host resistance enhancers in AIDS-immuno-compromised hosts and methods of use” (Merck & Co., Inc., priority 1987, dated 1989)", "origin": "cited, not measured here", "key": {"[1]": {"system": "AIDS or ARC patients", "details": "ARC or AIDS-related conditions"}, "[2]": {"details": "in vivo"}, "[3]": {"system": "patients"}, "[4]": {"target": "HIV reverse transcriptase (Human immunodeficiency virus type 1 group M subtype B, UniProt P04585)"}, "[5]": {"system": "reverse transcriptase", "details": "in vitro"}, "[6]": {"system": "human immunodeficiency virus (HIV)"}, "[7]": {"details": "clinical trials or use in patients"}}, "note": "Like-named read-outs stand apart in the source and are kept apart here.", "data": [{"compound": "CO[C@H]1/C=C/O[C@@]2(C)Oc3c(C)c(O)c4c(c3C2=O)C2=NC3(CCN(CC(C)C)CC3)NC2=C(NC(=O)/C(C)=C\\C=C\\[C@H](C)[C@H](O)[C@@H](C)[C@@H](O)[C@@H](C)[C@H](OC(C)=O)[C@@H]1C)C4=O", "note": "[Ansamycin]", "values": [{"measurement": "clinical effect in patients", "setting": "[1]", "value": "some efficacy"}]}, {"compound": "Cc1cn([C@H]2C[C@H](N=[N+]=[N-])[C@@H](CO)O2)c(=O)[nH]c1=O", "note": "[Azidothymidine, 3'-azido 3'-deoxythymidine]", "values": [{"measurement": "half life in the body", "setting": "[2]", "value": "relatively short half life"}, {"measurement": "penetration of central nervous system", "setting": "[2]", "value": "effectively penetrates central nervous system"}, {"measurement": "oral absorption", "setting": "[2]; po", "value": "Well absorbed orally"}, {"measurement": "clinical effect in patients", "setting": "[1]", "value": "promise in prolonging lives"}]}, {"compound": "CC(C)(N1CC1C#N)N1CC1C(N)=O", "note": "(stereo not drawn) [Azimexon]", "values": [{"measurement": "adverse effects, tolerability", "setting": "[3]; [7]", "value": "mild hemolysis"}, {"measurement": "clinical effect in patients", "setting": "[1]", "value": "improvements in symptoms and immune function in patients with ARC but not AIDS"}]}, {"compound": "CC(C)(S)[C@@H](N)C(=O)O", "note": "[D-Penicillamine, 3-mercapto D-valine]", "values": [{"measurement": "adverse effects, tolerability", "setting": "[3]; human, in vivo", "value": "temporarily depressed T cell levels"}, {"measurement": "clinical effect in patients", "setting": "[1]", "value": "suppressed the virus"}]}, {"compound": "O=C(O)P(=O)(O)O", "note": "[Foscarnet, trioodium phosphonoformate]", "values": [{"measurement": "adverse effects, tolerability", "setting": "[3]; human, in vivo", "value": "serious side effects"}, {"measurement": "inhibition of HIV reverse transcriptase", "setting": "[4]", "value": "Inhibits HIV reverse transcriptase activity in vitro"}]}, {"compound": "CC(=O)Nc1ccc(C(=O)O)cc1.CC(=O)Nc1ccc(C(=O)O)cc1.CC(=O)Nc1ccc(C(=O)O)cc1.CC(O)CN(C)C.CC(O)CN(C)C.CC(O)CN(C)C.O=c1[nH]cnc2c1ncn2[C@@H]1O[C@H](CO)[C@@H](O)[C@H]1O", "note": "[Inosine pranobex]", "values": [{"measurement": "clinical effect in patients", "setting": "[1]", "value": "improve immune function in ARC patients"}]}, {"compound": "NC(=O)c1ncn([C@@H]2O[C@H](CO)[C@@H](O)[C@H]2O)n1", "note": "[Ribavirin, 1-β-D-ribofuranosyl-1,2,4-triazole 3-carboxamide]", "values": [{"measurement": "adverse effects, tolerability", "setting": "[3]; [7]", "value": "well tolerated"}, {"measurement": "clinical effect in patients", "setting": "[1]", "value": "inhibited viral replication and improved immune function"}]}, {"compound": "Cc1ccc(C(=O)Nc2ccc(S(=O)(=O)O)c3cc(S(=O)(=O)O)cc(S(=O)(=O)O)c23)cc1NC(=O)c1cccc(NC(=O)Nc2cccc(C(=O)Nc3cc(C(=O)Nc4ccc(S(=O)(=O)O)c5cc(S(=O)(=O)O)cc(S(=O)(=O)O)c45)ccc3C)c2)c1", "note": "[Suramin]", "values": [{"measurement": "adverse effects, tolerability", "setting": "[3]; human, in vivo", "value": "serious side effects"}, {"measurement": "inhibition of HIV reverse transcriptase", "setting": "[4]", "value": "Potent inhibitor of HIV reverse transcriptase"}]}, {"compound": "ammonium-21-tungsto-9-antimoniate [HPA-23]", "values": [{"measurement": "inhibition of reverse transcriptase in several retroviruses", "setting": "[5]", "value": "Inhibits reverse transcriptase"}, {"measurement": "effect on HIV growth or infectivity", "setting": "[6]", "value": "some tendency to check the growth of HIV"}, {"measurement": "clinical effect in patients", "setting": "[1]", "value": "no therapeutic benefit has been documented"}]}, {"compound": "α-Interferon", "values": [{"measurement": "effect on HIV growth or infectivity", "setting": "[6]", "value": "Checks the growth of HIV in vitro"}, {"measurement": "clinical effect in patients", "setting": "[1]", "value": "induced tumor regression in some AIDS-related Kaposi's sarcoma cases"}]}]}
